Laboratory results taken from patent publication US9126966B2, “Cationic lipids and methods of use thereof” (Protiva Biotherapeutics, Inc., priority 2011, dated 2015).

Tested on: Liver ApoB mRNA
Assay: Liver ApoB mRNA knockdown after IV injection of LNP formulations, branched DNA assay (QuantiGene) relative to GAPDH
Format: in vivo, female Balb/c mice
Conditions: 1:57 LNP with ApoB siRNA; for ApoB knockdown relative PBS control / ApoB knockdown relative to PBS control: liver mRNA at 48 hours; for ApoB knockdown relative to PBS control: IV 0.033 mg/kg total siRNA, standard deviation in brackets; for ApoB-silencing activity of LNP formulations (in words): IV 0.033 mg/kg, summary of Table 3
Method: (§1) LNP formulations were administered by IV injection at 0.033 mg/kg total siRNA dose into female Balb/c mice (n=3 per group). Liver ApoB mRNA levels were evaluated at 48 hours after LNP administration by a branched DNA assay (QuantiGene assay) to assess ApoB mRNA relative to the housekeeping gene GAPDH.
as §1, with “intravenous” for “IV”, “doses of 0.0075, 0.015 and 0.03” for “0.033”, “evaluated” for “evaluated at”, “and standardized” for “to assess ApoB mRNA”

Row | SMILES | ApoB knockdown relative PBS control (IV 0.0075 mg/kg total siRNA) | ApoB knockdown relative PBS control (IV 0.015 mg/kg total siRNA) | ApoB knockdown relative PBS control (IV 0.03 mg/kg total siRNA) | ApoB knockdown relative to PBS control | ApoB-silencing activity of LNP formulations (in words) | Potency of LNP formulations compared with reference lipid (in words) (IV 0.0075, 0.015 and 0.03 mg/kg, summary of Table 5)
1 | CCCCC/C=C\C/C=C\CCCCCCCCC1(CCCCCCCC/C=C\C/C=C\CCCCC)OCC(CCN(C)C)O1 (centres unmarked) [Compound C2K, 2,2-dilinoleyl-4-(2-dimethylaminoethyl)[1,3]-dioxolane, reference compound] | −25% | −41% | −54% |  |  | 
2 | CCCCC/C=C\C/C=C\CCCCCCCCC1CC(CCCCCCC/C=C\C/C=C\CCCCC)OC(CCCN(C)C)O1 (centres unmarked) [Compound 9, 3-(4-((8Z,11Z)-heptadeca-8,11-dien-1-yl)-6-((9Z,12Z)-octadeca-9,12-dien-1-yl)-1,3-dioxan-2-yl)-N,N-dimethylpropan-1-amine] | −39% | −51% | −73% | −80 (±3.3) % | particularly potent ApoB-silencing activity | more potent than LNP formulations containing C2K
3 | CCCCC/C=C\C/C=C\CCCCCCCCC1CC(CCCCCCC/C=C\C/C=C\CCCCC)OC(CCN(C)C)O1 (centres unmarked) [Compound 8, 2-(4-((8Z,11Z)-heptadeca-8,11-dien-1-yl)-6-((9Z,12Z)-octadeca-9,12-dien-1-yl)-1,3-dioxan-2-yl)-N,N-dimethylethanamine] |  |  |  | −71 (±2.7) % | particularly potent ApoB-silencing activity | 
